In data set [1] the test system is HUVECs. The data set can be described thus: Blood vessel (tube) formation assay on Matrigel. In kind it is cell-based, human. Particulars: 4 hours, vs. control. The method, then: HUVECs (20,000 cells/well) were seed on a layer of previously polymerized Matrigel and treated with or without the first peptide and the second peptide. The Matrigel culture was incubated at 37° C. After 4 hours, changes in cell morphology were captured using a phase-contrast microscope (×40). Each sample was assayed in duplicate, and independent experiments were repeated three times. *P<0.05, **P,0.01, ***P<0.001 (vs. control).
HUVECs (20,000 cells/well) were seeded on a layer of previously polymerized Matrigel, treated with the visfatin-derived peptides, and then incubated in a 5% CO2 incubator at 37° C. for 4 hours. Then, changes in the cell morphology were observed and photographed using a phase-contrast microscope at 40× magnification. Each sample was assayed in duplicate, and independent experiments were repeated three times. Angiogenesis was analyzed with ImageJ software using an angiogenesis analyzer (Bethesda, MD, USA).

Data set [2] deals with HUVECs. Kind of data set: MTT cytotoxicity assay. The data set is classed as cell-based, human. Particulars: 0.1 μM, 0.5 μM, 1.0 μM and 2.0 μM, incubated overnight. As to the method: HUVECS (PromoCell, Heidelberg, Germany) were cultured in endothelial basal medium 2 (EBM) supplemented with Supplement Mix (PromoCell) containing 2% fetal bovine serum (FBS). The Supplement Mix consisted of 5 ng/mL epidermal growth factor (EGF), 10 ng/ml basic fibroblast growth factor (bFGF), 20 ng/mL insulin-like growth factor (IGF), 0.5 ng/mL VEGF, 1 ug/mL ascorbic acid, 22.5 ug/mL heparin, and 0.2 ug/mL hydrocortisone. In some experiments, cells were cultured in EBM medium supplemented with Supplement Mix, and cells between passages 2 and 7 were used in all experiments. Cells were cultured for 24 hours in a 5% CO2 incubator at a 37° C.
HUVECs were seeded at a density of 10,000 cells in 96-well plates (SPL, Korea) and incubated overnight with EBM-2 medium containing visfatin (1,000 ng/ml) and each of the peptides with the highest affinity, obtained from docking simulation, in a 5% CO2 incubator at 37° C. MIT reagent (Sigma-Aldrich) was added to each well to a final concentration of 0.5 mg/ml. After 4 hours, the medium was removed, the formazan crystals formed in the cells were dissolved in dimethyl sulfoxide (DMSO), and the absorbance of the formazan solution was measured at a wavelength of 540 nm using a Synergy HTX Multi-Mode Reader (BIO-TEK, Vermont, USA). Each sample was assayed in triplicate. […]

No end group written: not given here.

Turning to basic fibroblast growth factor [bFGF], the “number of master junctions (tube formation)” value in the data set with HUVECs [1] (second peptide except at the 2.0 μM concentration) was “significantly increased”. Moreover, the “number of meshes (tube formation)” value with HUVECs [1] (positive controls) is “not significantly changed”. As to LEYKLHDFGY [Peptide 1, LEYKLHDFGY], in the data set with HUVECs [2], the “cell viability of HUVECs (cytotoxicity)” value is recorded as “did not affect the viability of the cells”.

Consider EYKLHDFGYRGV [Peptide 2, EYKLHDFGYRGV], for which the “cell viability of HUVECs (cytotoxicity)” value in the data set with HUVECs [2] is given as “did not affect the viability of the cells”.

The record behind these values is patent publication US20260166130A1, “PEPTIDE COMPOSITION HAVING ANGIOGENIC ACTIVITY, AND PHARMACEUTICAL COMPOSITION USING SAME AND COSMETIC COMPOSITION USING SAME” (LABTOMEDI CRO CO.,LTD., priority 2022, published 2026).
